These results are taken from PubChem BioAssay AID258 (DTP/NCI, 2004).

This assay has as its system CD2F1 mice, L1210 leukemia sc, survival T/C. The assay can be described thus: NCI In Vivo Anticancer Drug Screen. Data for tumor model L1210 Leukemia (subcutaneous) in CD2F1 (CDF1) mice. To be noted: endpoint: median survival time, higher = longer survival. Put shortly:
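Antitumor activity is scored in tumor-bearing mice by comparing survival or tumor size of treated animals against vehicle-treated controls, reported as T/C.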

“And” between values parts separate entries of the source, which are not always exact repeats. Equal values may be shown once. Toxic doses and inconclusive results are not listed.

Consider `S=c1nc[nH]c2nc[nH]c12`, for which the T/C was 113 % of control (dose: 5.0 mg/kg/injection, schedule: Q01DX009 (sc), vehicle: saline with Tween-80); 111 % of control (dose: 5.0 mg/kg/injection, schedule: Q## X Z (sc), vehicle: other); 100 % of control (dose: 8.4 mg/kg/injection, schedule: Q01DX Z (sc), vehicle: methylcellulose (MC)); 100 % of control (dose: 14.0 mg/kg/injection, schedule: Q01DX Z (ip), vehicle: other); 100 % of control (dose: 14.0 mg/kg/injection, schedule: Q01DX Z (sc), vehicle: methylcellulose (MC)); 100 % of control (dose: 14.0 mg/kg/injection, schedule: Q01DX Z (sc), vehicle: other). The T/C by setting is: (dose: 14.0 mg/kg/injection, schedule: Q## X Z (sc), vehicle: other) 172 % of control; (dose: 14.0 mg/kg/injection, schedule: Q#A X Z (sc), vehicle: other) 111 % of control; (dose: 20.0 mg/kg/injection, schedule: Q01DX009 (sc), vehicle: saline with Tween-80) 167 % of control; (dose: 23.0 mg/kg/injection, schedule: Q01DX Z (ip), vehicle: other) 100 % of control; (dose: 23.0 mg/kg/injection, schedule: Q01DX Z (oral), vehicle: other) 110 % of control; (dose: 23.0 mg/kg/injection, schedule: Q01DX Z (sc), vehicle: methylcellulose (MC)) 109 % of control and 110 % of control. For the same molecule, the T/C was 100 % of control (dose: 23.0 mg/kg/injection, schedule: Q02DX Z (sc), vehicle: other); 161 % of control (dose: 23.0 mg/kg/injection, schedule: Q## X Z (sc), vehicle: other); 105 % of control (dose: 23.0 mg/kg/injection, schedule: Q#A X Z (sc), vehicle: other); 112 % of control (dose: 25.0 mg/kg/injection, schedule: Q01DX Z (sc), vehicle: other); 100 % of control (dose: 39.0 mg/kg/injection, schedule: Q01DX001 (sc), vehicle: other); 100 % of control (dose: 39.0 mg/kg/injection, schedule: Q01DX Z (ip), vehicle: other). Further, the T/C runs as follows: (dose: 39.0 mg/kg/injection, schedule: Q01DX Z (oral), vehicle: other) 110 % of control; (dose: 39.0 mg/kg/injection, schedule: Q02DX Z (sc), vehicle: other) 111 % of control; (dose: 39.0 mg/kg/injection, schedule: Q07DX Z (sc), vehicle: other) 111 % of control; (dose: 39.0 mg/kg/injection, schedule: Q#A X Z (sc), vehicle: other) 166 % of control; (dose: 40.0 mg/kg/injection, schedule: Q01DX009 (sc), vehicle: saline with Tween-80) 151 % of control; (dose: 46.8 mg/kg/injection, schedule: Q01DX Z (sc), vehicle: other) 122 % of control. For the same molecule, the T/C (dose: 50.0 mg/kg/injection, schedule: Q01DX Z (sc), vehicle: other) was 175 % of control; the T/C (dose: 65.0 mg/kg/injection, schedule: Q01DX001 (sc), vehicle: other) is 105 % of control; the T/C (dose: 65.0 mg/kg/injection, schedule: Q01DX Z (sc), vehicle: methylcellulose (MC)) was 165 % of control; the T/C (dose: 65.0 mg/kg/injection, schedule: Q02DX Z (sc), vehicle: other) was 111 % of control; the T/C (dose: 65.0 mg/kg/injection, schedule: Q07DX Z (sc), vehicle: other) was 111 % of control; the T/C (dose: 65.0 mg/kg/injection, schedule: Q## X Z (sc), vehicle: other) was 111 % of control. In addition, the T/C is 177 % of control (dose: 65.0 mg/kg/injection, schedule: Q#A X Z (sc), vehicle: other); 194 % of control (dose: 78.0 mg/kg/injection, schedule: Q01DX Z (sc), vehicle: other); 110 % of control (dose: 80.0 mg/kg/injection, schedule: Q01DX009 (sc), vehicle: saline with Tween-80); 162 % of control (dose: 100.0 mg/kg/injection, schedule: Q01DX Z (sc), vehicle: other); 122 % of control (dose: 108.0 mg/kg/injection, schedule: Q01DX001 (sc), vehicle: other); 175 % of control (dose: 108.0 mg/kg/injection, schedule: Q01DX Z (ip), vehicle: other). Besides, the T/C by setting is: (dose: 108.0 mg/kg/injection, schedule: Q01DX Z (oral), vehicle: other) 170 % of control; (dose: 108.0 mg/kg/injection, schedule: Q02DX Z (sc), vehicle: other) 200 % of control; (dose: 108.0 mg/kg/injection, schedule: Q07DX Z (sc), vehicle: other) 122 % of control; (dose: 108.0 mg/kg/injection, schedule: Q## X Z (sc), vehicle: other) 111 % of control; (dose: 130.0 mg/kg/injection, schedule: Q01DX Z (sc), vehicle: other) 177 % of control; (dose: 160.0 mg/kg/injection, schedule: Q01DX009 (sc), vehicle: saline with Tween-80) 89 % of control. The T/C is, setting by setting: (dose: 180.0 mg/kg/injection, schedule: Q01DX001 (sc), vehicle: other) 122 % of control; (dose: 180.0 mg/kg/injection, schedule: Q01DX Z (sc), vehicle: methylcellulose (MC)) 118 % of control; (dose: 180.0 mg/kg/injection, schedule: Q02DX Z (sc), vehicle: other) 172 % of control; (dose: 180.0 mg/kg/injection, schedule: Q07DX Z (sc), vehicle: other) 122 % of control; (dose: 180.0 mg/kg/injection, schedule: Q## X Z (sc), vehicle: other) 122 % of control; (dose: 216.0 mg/kg/injection, schedule: Q01DX Z (sc), vehicle: other) 166 % of control. Also, the T/C (dose: 300.0 mg/kg/injection, schedule: Q01DX001 (sc), vehicle: other) is 111 % of control and the T/C (dose: 300.0 mg/kg/injection, schedule: Q01DX Z (sc), vehicle: other) was 150 % of control.

On to `C[C@]12CC[C@H](OC3OC(CO)C(O)C(O)C3O)C[C@H]1CC[C@@H]1[C@@H]2CC[C@]2(C)[C@@H](C3=CCOC3=O)CC[C@]12O` (some centres undefined), for which the T/C (dose: 3.0 mg/kg/injection, schedule: Q01DX Z (sc), vehicle: saline) is 110 % of control; the T/C (dose: 5.0 mg/kg/injection, schedule: Q01DX Z (sc), vehicle: saline) was 110 % of control; the T/C (dose: 8.4 mg/kg/injection, schedule: Q01DX Z (sc), vehicle: saline) was 110 % of control.

Take `CN1c2c(nc(N)[nH]c2=O)NCC1CCNc1ccc(C(=O)NC(CCC(=O)O)C(=O)O)cc1` (centres undefined): the T/C is, setting by setting: (dose: 200.0 mg/kg/injection, schedule: Q01DX009 (ip), vehicle: other) 150 % of control; (dose: 200.0 mg/kg/injection, schedule: Q01DX Z (ip), vehicle: other) 155 % of control; (dose: 200.0 mg/kg/injection, schedule: Q04DX003 (ip), vehicle: other) 116 % of control; (dose: 400.0 mg/kg/injection, schedule: Q01DX009 (ip), vehicle: other) 155 % of control; (dose: 400.0 mg/kg/injection, schedule: Q01DX Z (ip), vehicle: other) 155 % of control and 166 % of control; (dose: 400.0 mg/kg/injection, schedule: Q04DX003 (ip), vehicle: other) 111 % of control. The T/C (dose: 1600.0 mg/kg/injection, schedule: Q04DX003 (ip), vehicle: other) is 111 % of control.

For `CN1CCN(c2ccc3nc(-c4ccc5nc(-c6ccc(O)cc6)[nH]c5c4)[nH]c3c2)CC1`, the T/C by setting is: (dose: 4.7 mg/kg/injection, schedule: Q03HX024 (ip), vehicle: saline) 102 % of control; (dose: 9.4 mg/kg/injection, schedule: Q03HX024 (ip), vehicle: saline) 107 % of control; (dose: 14.0 mg/kg/injection, schedule: Q03HX008 (ip), vehicle: saline) 102 % of control; (dose: 18.75 mg/kg/injection, schedule: Q03HX024 (ip), vehicle: saline) 110 % of control; (dose: 28.0 mg/kg/injection, schedule: Q03HX008 (ip), vehicle: saline) 113 % of control; (dose: 37.5 mg/kg/injection, schedule: Q03HX024 (ip), vehicle: saline) 119 % of control. Also, the T/C is 101 % of control (dose: 37.5 mg/kg/injection, schedule: Q04DX003 (ip), vehicle: saline); 107 % of control (dose: 75.0 mg/kg/injection, schedule: Q04DX003 (ip), vehicle: saline); 104 % of control (dose: 112.0 mg/kg/injection, schedule: Q01DX001 (ip), vehicle: suspension in saline); 110 % of control (dose: 150.0 mg/kg/injection, schedule: Q04DX003 (ip), vehicle: saline).

Consider `Oc1ccc(F)c2cccnc12`, for which the T/C (dose: 39.0 mg/kg/injection, schedule: Q01DX Z (sc), vehicle: other) was 100 % of control; the T/C (dose: 65.0 mg/kg/injection, schedule: Q01DX Z (sc), vehicle: other) was 100 % of control; the T/C (dose: 108.0 mg/kg/injection, schedule: Q01DX Z (sc), vehicle: other) is 100 % of control; the T/C (dose: 180.0 mg/kg/injection, schedule: Q01DX Z (sc), vehicle: other) is 100 % of control.
